Assay results reported in the NIST ThermoML archive (doi:10.1016/j.fluid.2005.03.030).

Assay: xn = mol fraction of the nth substance listed
Conditions: Liquid, Falling body viscometer

COCCOCCOCCOCCOC [2,5,8,11,14-pentaoxapentadecane] + FCC(F)(F)F
viscosity [mPa·s]
Conditions	10000 kPa	20000 kPa	30000 kPa	40000 kPa	50000 kPa	60000 kPa	70000 kPa	80000 kPa	90000 kPa	100000 kPa
293.15 K, x2 = 0.2769	3.132	3.378	3.669	3.992	4.341	4.71	5.095	5.495	5.907	6.329
293.15 K, x2 = 0.4433	2.335	2.537	2.765	3.014	3.282	3.568	3.871	4.191	4.527	4.877
293.15 K, x2 = 0.6333	1.514	1.679	1.851	2.031	2.219	2.414	2.617	2.827	3.045	3.269
293.15 K, x2 = 0.8797	0.557	0.613	0.671	0.733	0.796	0.863	0.932	1.003	1.077	1.154
313.15 K, x2 = 0.2769	2.001	2.197	2.395	2.601	2.816	3.043	3.282	3.535	3.803	4.088
313.15 K, x2 = 0.4433	1.527	1.674	1.824	1.978	2.14	2.31	2.49	2.68	2.881	3.094
313.15 K, x2 = 0.6333	1.046	1.151	1.26	1.374	1.493	1.616	1.745	1.878	2.016	2.159
313.15 K, x2 = 0.8797	0.412	0.46	0.506	0.553	0.6	0.647	0.695	0.744	0.794	0.845
333.15 K, x2 = 0.2769	1.406	1.533	1.664	1.8	1.941	2.086	2.236	2.391	2.549	2.712
333.15 K, x2 = 0.4433	1.097	1.195	1.297	1.402	1.512	1.624	1.741	1.861	1.984	2.111
333.15 K, x2 = 0.6333	0.774	0.845	0.922	1.003	1.087	1.173	1.26	1.349	1.438	1.529
333.15 K, x2 = 0.8797	0.321	0.364	0.405	0.444	0.483	0.522	0.561	0.6	0.64	0.681
353.15 K, x2 = 0.2769	1.038	1.133	1.229	1.328	1.431	1.539	1.653	1.773	1.9	2.035
353.15 K, x2 = 0.4433	0.834	0.908	0.984	1.064	1.147	1.233	1.323	1.415	1.51	1.609
353.15 K, x2 = 0.6333	0.609	0.665	0.725	0.788	0.854	0.921	0.99	1.061	1.132	1.205
353.15 K, x2 = 0.8797	0.256	0.299	0.336	0.37	0.404	0.436	0.469	0.501	0.533	0.565
373.15 K, x2 = 0.2769	0.832	0.907	0.986	1.069	1.156	1.247	1.342	1.441	1.545	1.654
373.15 K, x2 = 0.4433	0.662	0.72	0.783	0.85	0.921	0.994	1.069	1.147	1.226	1.307
373.15 K, x2 = 0.6333	0.471	0.524	0.577	0.631	0.685	0.739	0.794	0.849	0.904	0.96
373.15 K, x2 = 0.8797	0.195	0.234	0.268	0.3	0.33	0.36	0.39	0.419	0.448	0.478
